Measurements published in the supplement of paper PMC10307832.

What was measured:
Test in all cases: relative viability (nuclei count vs DMSO), 5 days (fraction); higher = more cells survive
QS11 + Luminespib = compound: C1CC2=C(C1)C=C(C=C2)OC3=NC(=C4C(=N3)N(C=N4)CC5=CC=C(C=C5)C6=CC=CC=C6)N[C@@H](CC7=CC=CC=C7)CO [QS11] + CCNC(=O)c1noc(-c2cc(C(C)C)c(O)cc2O)c1-c1ccc(CN2CCOCC2)cc1 [Luminespib] (partner 0.01 µM)
In short: (§1)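 Relative viability is defined as nuclei in treated wells over nuclei in vehicle wells. Duplicate plates were run and medians reported. Lung cancer cell lines in 1536-well plates were dosed by pin tool one day after seeding, with one drug or with a fixed anchor-drug dose plus five library-drug doses (not always all listed) in √10 steps, and nuclei were counted after 5 days.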

AZ628 + Tozasertib = compound: CC1=C(C=C(C=C1)NC(=O)C2=CC(=CC=C2)C(C)(C)C#N)NC3=CC4=C(C=C3)N=CN(C4=O)C [AZ628] + Cc1cc(Nc2cc(N3CCN(C)CC3)nc(Sc3ccc(NC(=O)C4CC4)cc3)n2)n[nH]1 [Tozasertib] (partner 0.1 µM)
In short: as §1

AZ628 + Phenformin = compound: CC1=C(C=C(C=C1)NC(=O)C2=CC(=CC=C2)C(C)(C)C#N)NC3=CC4=C(C=C3)N=CN(C4=O)C [AZ628] + N=C(N)NC(=N)NCCc1ccccc1 [Phenformin] (partner 250 µM)
In short: as §1

AZ628 + AZD7762 = compound: CC1=C(C=C(C=C1)NC(=O)C2=CC(=CC=C2)C(C)(C)C#N)NC3=CC4=C(C=C3)N=CN(C4=O)C [AZ628] + NC(=O)Nc1cc(-c2cccc(F)c2)sc1C(=O)N[C@H]1CCCNC1 [AZD7762] (partner 0.2 µM)
In short: as §1

| Cell Line | relative viability (QS11 + Luminespib; first compound 0.08 µM) | relative viability (QS11 + Luminespib; first compound 0.253 µM) | relative viability (QS11 + Luminespib; first compound 0.8 µM) | relative viability (QS11 + Luminespib; first compound 2.53 µM) | relative viability (QS11 + Luminespib; first compound 8 µM) | relative viability (AZ628 + Tozasertib; first compound 0.08 µM) | relative viability (AZ628 + Tozasertib; first compound 0.253 µM) | relative viability (AZ628 + Tozasertib; first compound 0.8 µM) | relative viability (AZ628 + Tozasertib; first compound 2.53 µM) | relative viability (AZ628 + Tozasertib; first compound 8 µM) | relative viability (AZ628 + Phenformin; first compound 0.08 µM) | relative viability (AZ628 + Phenformin; first compound 0.253 µM) | relative viability (AZ628 + Phenformin; first compound 0.8 µM) | relative viability (AZ628 + Phenformin; first compound 2.53 µM) | relative viability (AZ628 + Phenformin; first compound 8 µM) | relative viability (AZ628 + AZD7762; first compound 0.08 µM) | relative viability (AZ628 + AZD7762; first compound 0.253 µM) | relative viability (AZ628 + AZD7762; first compound 0.8 µM) | relative viability (AZ628 + AZD7762; first compound 2.53 µM) | relative viability (AZ628 + AZD7762; first compound 8 µM) |
| --- | --- | --- | --- | --- | --- | --- | --- | --- | --- | --- | --- | --- | --- | --- | --- | --- | --- | --- | --- | --- |
| HCC-44 | 1.08 | 1.18 | 0.805 | 0.937 | 1.24 | 1.16 | 0.956 | 0.941 | 0.332 | 0.532 | 0.218 | 0.0997 | 0.136 | 0.115 | 0.203 | 1.01 | 0.945 | 1.08 | 1.04 | 1.24 |
| HCC-78 |  |  |  |  |  | 0.445 | 0.383 | 0.463 | 0.346 | 0.465 | 0.814 | 0.631 | 0.767 | 0.705 | 0.726 | 0.808 | 0.663 | 0.644 | 0.85 | 0.787 |
| HCC-366 |  |  |  |  |  | 0.0912 | 0.0518 | 0.0747 | 0.0418 | 0.0451 | 0.585 | 0.572 | 0.554 | 0.598 | 0.499 | 0.248 | 0.193 | 0.235 | 0.207 | 0.149 |
| NCI-H520 | 0.25 | 0.369 | 0.228 | 0.231 | 0.209 | 0.407 | 0.453 | 0.365 | 0.422 | 0.412 | 0.583 | 0.452 | 0.64 | 0.476 | 0.398 |  |  |  |  |  |
| NCI-H661 | 0.988 | 0.96 | 0.806 | 1.08 | 0.839 | 0.365 | 0.409 | 0.365 | 0.376 | 0.42 | 0.283 | 0.266 | 0.278 | 0.292 | 0.275 |  |  |  |  |  |
| NCI-H1563 | 0.59 | 0.541 | 0.513 | 0.532 | 0.452 |  |  |  |  |  | 0.694 | 0.661 | 0.672 | 0.654 | 0.679 |  |  |  |  |  |
| NCI-H1623 | 0.529 | 0.705 | 0.486 | 0.479 | 0.503 | 0.528 | 0.388 | 0.406 | 0.381 | 0.307 | 0.6 | 0.524 | 0.382 | 0.505 | 0.437 |  |  |  |  |  |
| NCI-H1648 |  |  |  |  |  | 0.624 | 0.615 | 0.613 | 0.539 | 0.427 |  |  |  |  |  | 0.871 | 0.579 | 0.524 | 0.494 | 0.587 |
| NCI-H1650 | 0.193 | 0.209 | 0.201 | 0.192 | 0.216 | 0.469 | 0.494 | 0.337 | 0.368 | 0.206 | 0.537 | 0.403 | 0.33 | 0.333 | 0.335 |  |  |  |  |  |
| NCI-H1703 |  |  |  |  |  |  |  |  |  |  |  |  |  |  |  | 0.118 | 0.124 | 0.134 | 0.139 | 0.0724 |
| NCI-H1792 | 0.432 | 0.417 | 0.386 | 0.369 | 0.409 |  |  |  |  |  | 0.309 | 0.258 | 0.225 | 0.158 | 0.115 | 0.776 | 0.668 | 0.575 | 0.541 | 0.385 |
| NCI-H2009 | 1.01 | 1.15 | 0.823 | 0.905 | 0.935 | 0.667 | 0.571 | 0.599 | 0.569 | 0.298 | 0.447 | 0.395 | 0.283 | 0.346 | 0.273 |  |  |  |  |  |
| NCI-H2023 | 0.789 | 0.916 | 0.554 | 0.624 | 0.814 | 0.308 | 0.284 | 0.235 | 0.212 | 0.137 | 0.387 | 0.392 | 0.368 | 0.381 | 0.293 |  |  |  |  |  |
| NCI-H2228 | 0.0998 | 0.191 | 0.154 | 0.14 | 0.145 | 0.241 | 0.288 | 0.239 | 0.272 | 0.161 | 0.25 | 0.274 | 0.252 | 0.218 | 0.206 |  |  |  |  |  |
| SK-LU-1 | 0.21 | 0.192 | 0.211 | 0.223 | 0.211 |  | 0.275 | 0.287 | 0.255 | 0.283 |  | 0.433 | 0.488 | 0.348 | 0.253 |  |  |  |  |  |
| SK-MES-1 | 0.553 | 0.927 | 0.685 | 0.883 | 0.823 | 0.952 | 0.875 | 1.01 | 0.959 | 0.443 | 0.715 | 0.661 | 0.619 | 0.675 | 0.466 |  |  |  |  |  |
| SW 1573 | 0.239 | 0.239 | 0.198 | 0.21 | 0.235 | 0.203 | 0.186 | 0.2 | 0.135 | 0.122 | 0.322 | 0.308 | 0.215 | 0.288 | 0.2 |  |  |  |  |  |
| UMC-11 | 1.01 | 1.13 | 0.995 | 1.27 | 1.12 | 0.228 | 0.21 | 0.194 | 0.212 | 0.203 | 0.322 | 0.268 | 0.339 | 0.294 | 0.255 |  |  |  |  |  |
